Data as given in patent publication US20210188930A1 (priority 2018, published 2021).
Entries after “also recorded” stand apart in the source; their conditions may differ. Where two headings read alike, the source gives them in different places.

How the values were obtained:
p53-R282W = target: T1, p53-R282W (Homo sapiens, UniProt P04637, R282W); type: cell-based; conditions: p53-R282W on PUMA promoter, agents 24 hr (FIG. 37 and FIG. 41)
T1 construct: pcDNA3.1 expressing human full length p53 was gift from Prof; Xin Lu; expressed in transfected cells; host or cells: H1299 (p53-null)

NCI60 cell lines = type: cell-based, human; conditions: Struc. / WT / Null / Others, G150 retrieved by CellMiner
wtp53 = experiment: Real time qPCR of p53 targets, HCT116 cells; type: cell-based, human; conditions: HCT116 expressing wtp53
Protocol: Total RNA was isolated from cells using Total RNA Purification Kit (B518651, Sangon Biotech). 1 μg total RNA was reverse-transcribed using the GoScript®™ Reverse Transciptase System (A5001, Promega) following manufacturer's protocol. PCR was performed in triplicate using SYBR green mix (Applied Biosystems), and a ViiA™ 7 Real-Time PCR System (Applied Biosystems) under the following conditions: 10 min at 95° C. followed by 40 cycles of 95° C. for 15 s and 60° C. for 1 min. Specificity of the PCR product was checked for each primer set and samples from the melting curve analysis. Expression levels of targeted genes were normalized relative to levels of β-actin adopting comparative Ct method.

p53-R172H = target: T2, p53-R172H (Mus musculus, UniProt P02340, R172H); type: cell-based
T2 construct: endogenous in cells; host or cells: mouse embryonic fibroblasts, Trp53-R172H/R172H
T2 sequence (P02340 whole entry R172H): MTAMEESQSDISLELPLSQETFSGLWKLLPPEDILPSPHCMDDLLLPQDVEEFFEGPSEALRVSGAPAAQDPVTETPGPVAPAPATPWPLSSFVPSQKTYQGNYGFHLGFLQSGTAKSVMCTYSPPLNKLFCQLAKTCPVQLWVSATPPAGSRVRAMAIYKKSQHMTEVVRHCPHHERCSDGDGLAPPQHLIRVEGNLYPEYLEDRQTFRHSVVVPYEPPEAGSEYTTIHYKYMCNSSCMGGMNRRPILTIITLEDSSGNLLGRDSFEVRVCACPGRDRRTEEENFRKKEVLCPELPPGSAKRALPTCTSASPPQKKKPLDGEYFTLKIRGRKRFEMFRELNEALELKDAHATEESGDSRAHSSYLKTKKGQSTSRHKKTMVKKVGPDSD

Row | Molecule | enhancement of p53 transcriptional activity in luciferase assay (p53-R282W) | also measured
1 | COc1ccc(/C=C/c2nc(NCCCN(C)C)c3ccccc3n2)cc1 [CP31398] | 1.5 times | 
2 | Cc1c2ccncc2c(C)c2c1[nH]c1ccccc12 [Ellipticine] | 3.3 times | 
3 | C/C(=N\NC(=S)N1CCC1)c1ccccn1 [NSC319726] | 1.5 times | selectivity among NCI60 cell lines by p53 status (G150), in words (NCI60 cell lines): none of the reported compounds tested, including PRIMA-1 and NSC319726 survived the 4C screening; also recorded: No significant association
4 | COc1ccc(C2=N[C@@H](c3ccc(Cl)cc3)[C@@H](c3ccc(Cl)cc3)N2C(=O)N2CCNC(=O)C2)c(OC(C)C)c1 [Nutlin3] |  | mRNA levels of p53 targets, in words (wtp53): significantly enhanced PUMA, PIG3, CDKN1A and MDM2 mRNA levels
5 | O=C1C2CCN(CC2)C1(CO)CO [PRIMA-1] | negligible | selectivity among NCI60 cell lines by p53 status (G150), in words (NCI60 cell lines): none of the reported compounds tested, including PRIMA-1 and NSC319726 survived the 4C screening; selectivity among NCI60 cell lines by p53 status (G150), in words (NCI60 cell lines; listed as NSC281668): No significant association
6 | CCn1c2ccccc2c2cc(CNC)ccc21 [PhiKan083] | negligible | 
7 | OCc1ccc(-c2ccc(-c3ccc(CO)s3)o2)s1 [RITA] | negligible | 
8 | C=Cc1nc2ccccc2c(=O)[nH]1 [STIMA-1] | negligible | 
9 | MIRA-1 | negligible | 
10 | potassium arsenite [NSC3060] |  | PAb246 epitope (folded mouse p53-R172H), in words (p53-R172H): measurable increase of PAb1620 epitopes and PAb246 (for mouse p53-R172H) epitopes
